Experimental data as given in paper PMC10721329, “Quisinostat is a brain-penetrant radiosensitizer in glioblastoma” (JCI Insight, 2023).
Several values for one entry are separate records, joined by “and”; a condition that tells them apart may be missing. Equal values may be shown once.

Tested on: orthotopic GB126 tumors
Assay: Survival study, orthotopic GB126 PDX, QST with or without IR
Type: in vivo, athymic nude mice
Conditions: for Survival, Days Post Injection (death): GB126 PDX, individual mice; for increase of median survival versus vehicle: orthotopic GB126 PDX
Experimental: We additionally questioned whether QST, either alone or in combination with IR, could extend the survival of tumor-bearing mice. In this study, mice received the same treatments described above, but after completion of the 1-week IR regimen, mice continued to receive QST at 10 mg/kg or vehicle solution on MWF until study completion, as determined by large tumor burden and onset of neurological symptoms (Figure 8A). […] Although QST monotherapy slowed tumor growth, median survival for the QST-treated mice was only 4 days longer than for the vehicle-treated mice (P < 0.01), and IR alone increased median survival by 17 days (P < 0.001; Figure 8D). However, combining QST with IR led to a significant increase in median survival (37 days, P < 0.001) compared with the vehicle (Figure 8D).
Seven-week-old Foxn1^nu nude male mice (The Jackson Laboratory) were used for in vivo orthotopic transplantation of luciferized GB126 ([…]) cells (at a density of 50,000 cells/μL). All procedures were performed as described elsewhere ([11]). All mice were observed daily and were sacrificed upon the onset of severe neurological symptoms and more than 10% body weight loss. Survival data were plotted and analyzed using GraphPad Prism 8. See Supplemental Methods for detailed in vivo methods. […]
treated with 2 Gy of ionizing radiation on MWF for a total 6 Gy (3 doses). Ionizing radiation was administered with the RS2000 series biological research irradiator (Rad Source Technologies). […]
Treatment of Mice with Intracranially Implanted QST and/or Radiation
Mice with implanted tumors were allowed to grow until the tumor bioluminescence score reached […] radiance (p/s/[…]/sr). Mice were randomized into groups before treatment. For survival studies, mice underwent treatment on MWF for the entire duration of the experiment until moribund. For mice receiving IR treatment with or without QST, mice were treated with 2 […]
Gy on MWF for a total of 6 Gy in the first week of treatment. Treatment groups included vehicle (50% PEG-3000), QST (10 mg/kg) alone, 6 Gy whole-brain IR treatment with vehicle, and 6 Gy whole-brain IR treatment with 10 mg/kg QST. QST was administered to mice through intraperitoneal injections two hours prior to whole-brain radiation treatment. Upon completion of the radiation regimen, IR-treated mice subsequently received QST or vehicle alone for the rest of the experiment. Tumor growth and treatment response was monitored by IVIS bioluminescence once per week. For survival studies, mice were sacrificed, and samples were collected for PD and PK analyses once moribund 2 hours after treatment with a final dose of QST (10 mg/kg).
For short-term PK-PD correlation studies, tumor-bearing mice were randomized into groups and underwent a single week of treatment with QST (10 mg/kg) on MWF. […]

Cn1cc(CNCC2CCN(c3ncc(C(=O)NO)cn3)CC2)c2ccccc21 [QST, quisinostat]
Survival, Days Post Injection (death) (QST 10 mg/kg + IR 6 Gy): 79 days and 85 days and 83 days and 86 days and 75 days and 84 days and 82 days | Survival, Days Post Injection (death) (QST 10 mg/kg alone): 65 days and 50 days and 49 days and 48 days and 46 days and 57 days and 54 days and 66 days | increase of median survival versus vehicle (QST 10 mg/kg MWF + IR 6 Gy): 37 days | increase of median survival versus vehicle (QST 10 mg/kg MWF monotherapy): 4 days
